From PubChem BioAssay AID588480 (Broad Institute, 2011)
Where “and” joins values, the source holds several entries; their conditions need not be identical. Equal values may be shown once. Inconclusive results are not listed. Calls of active or inactive are those of the source.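 Rule for the calls: active = compounds whose fitted half-maximal concentration stays within ten times the top tested dose in every test run; inconclusive = runs disagree, or a flat partial drop or poor fit; inactive = every run inactive, including flat curves and signal rises.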

molecular target: Serine/threonine-protein kinase 33 (Homo sapiens) (UniProt Q9BYT3); assay: STK33 kinase inhibitors, potency, dose response, biochemical, ADP-Glo luminescence, dry powder, set 2 (AID 588480); conditions: purified STK33, MBP phosphorylation
Sequence (Q9BYT3 whole entry, looked up): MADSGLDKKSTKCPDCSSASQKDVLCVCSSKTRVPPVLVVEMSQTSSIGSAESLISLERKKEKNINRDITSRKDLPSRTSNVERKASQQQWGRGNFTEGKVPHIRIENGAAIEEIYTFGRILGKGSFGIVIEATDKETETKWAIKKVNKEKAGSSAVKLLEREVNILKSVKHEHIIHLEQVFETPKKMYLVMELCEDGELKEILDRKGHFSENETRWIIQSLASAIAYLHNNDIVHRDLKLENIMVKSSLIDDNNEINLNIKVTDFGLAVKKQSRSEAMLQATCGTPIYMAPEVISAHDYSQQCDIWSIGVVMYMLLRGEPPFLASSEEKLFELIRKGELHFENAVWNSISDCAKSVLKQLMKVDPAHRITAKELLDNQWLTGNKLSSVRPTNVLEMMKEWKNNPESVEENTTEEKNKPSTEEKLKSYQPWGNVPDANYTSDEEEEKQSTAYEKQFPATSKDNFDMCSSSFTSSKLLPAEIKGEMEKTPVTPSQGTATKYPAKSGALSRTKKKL

AC50	Compound
466 nM	COc1cc(/C=C2\SC(N)=NC2=O)ccc1O
245 nM	O=C1NC(=NCc2ccccc2)S/C1=C/c1ccc(O)cc1
582 nM	O=C(Nc1ccccc1-c1nc2ccccc2[nH]c1=O)c1cccnc1
9910 nM	COc1cc(/C=C2\SC(=Nc3ccccc3OC)NC2=O)ccc1F
911 nM	COc1ccccc1N=C1NC(=O)/C(=C/c2ccc(O)cc2)S1
8510 nM	O=C(Nc1ccccc1-c1nc2ccccc2[nH]c1=O)c1cc2ccccc2s1
152 nM	O=C(Nc1ccccc1-c1nc2ccccc2[nH]c1=O)c1ccc(F)cc1
5410 nM	COc1ccccc1N=C1NC(=O)/C(=C/c2ccc3c(c2)OCO3)S1
977 nM	COc1ccc(C(=O)Nc2ccccc2-c2nc3ccccc3[nH]c2=O)cc1
2430 nM	O=C(Nc1ccccc1-c1nc2ccccc2[nH]c1=O)c1cccc(F)c1
709 nM	O=C(Nc1ccccc1-c1nc2ccccc2[nH]c1=O)c1cccc(Cl)c1
1280 nM	COc1ccccc1N=C1NC(=O)/C(=C/c2ccc3c(c2)OCCO3)S1
76 nM	O=C(Nc1ccccc1-c1nc2ccccc2[nH]c1=O)c1ccccn1
7690 nM	O=C(Nc1ccccc1-c1nc2ccccc2[nH]c1=O)c1ccncc1
285 nM and 308 nM	O=C(Nc1ccccc1-c1nc2ccccc2[nH]c1=O)c1cccs1
2250 nM	COc1ccc(/C=C2\SC(=Nc3ccccc3OC)NC2=O)cc1
250 nM and 321 nM	COc1cc(/C=C2\SC(=Nc3ccccc3OC)NC2=O)ccc1O

same assay, conditions: purified STK33, MBP phosphorylation, at 10 µM (top of the series)

activity change, negative = inhibition	Compound
inactive	COc1ccccc1Nc1nc(O)c(/C=C2/C=c3ccccc3=N2)s1
inactive	O=C(Nc1ccccc1-c1nc2ccccc2[nH]c1=O)C1CCCCC1
inactive	COc1ccccc1N=C1NC(=O)/C(=C/c2cccc(Cl)c2)S1
inactive	COc1ccccc1/C=C1\SC(=Nc2ccccc2OC)NC1=O
inactive	COc1ccccc1N=C1NC(=O)/C(=C/c2cccn2C)S1
inactive	COc1ccccc1N=C1NC(=O)/C(=C/c2ccc(OC(F)(F)F)cc2)S1
inactive	Nc1ccccc1-c1nc2ccccc2[nH]c1=O
inactive	O=c1[nH]c2ccccc2nc1-c1ccccc1NCc1cccs1
inactive	COc1ccccc1N=C1NC(=O)/C(=C/c2cc(C)on2)S1
inactive	COc1ccccc1N=C1NC(=O)/C(=C/C2CCCCC2)S1
inactive	COc1ccccc1N=C1NC(=O)CS1
inactive	COc1ccccc1N=C1NC(=O)/C(=C/c2ccccn2)S1
inactive	COc1ccccc1N=C1NC(=O)/C(=C/C(C)C)S1
inactive	COc1ccccc1N=C1NC(=O)/C(=C/c2cccc(F)c2)S1
